Test results: patent publication US11014925B2, “Co-crystals of 1-(4-fluoro-phenyl)-4-((6bR,1OaS)-3-methyl-2,3,6b,9,10,10a-hexahydro-1H,7H- pyrido[3′,4′:4,51_pyrrolo [1,2,3-delqcuinoxalin-8-yl)-butan-1-one with nicotinamide or isonicotinamide” (INTRA-CELLULAR THERAPIES, INC., priority 2016, dated 2021)
Where two headings read alike, the source gives them in different places.

Experiments:
[1] = hydrochloride salt of U.S. Pat. No. 7,183,282; cited from earlier work
[2] = hydrochloride salt of U.S. Pat. No. 7,183,282; cited from earlier work; remark: listed apart in the source
[3] = Dynamic Vapour Sorption (DVS) hygroscopicity; assay type: physicochemical
Description: Dynamic Vapour Sorption (DVS): The Dynamic Vapour Sorption studies are performed using a Surface Measurement Systems Ltd. DVS-1 No Video, equipment #2126. The sample is loaded into a balance pan, typically 20-30 mg, and equilibrated at 0% RH. After the material was dried, the RH is increased with 10% per step for 1 hour per increment, ending at 95% RH. After completion of the sorption cycle, the sample was dried using the same method. The software used for data collection is DVSWin v3.01 No Video. Data analysis is performed using DVS Standard Analysis Suite v6.3.0 (Standard).

5-HT2C receptors = target: T1, 5-HT2C receptors (Homo sapiens, UniProt P28335); conditions: cited from earlier work
T1 sequence (P28335 33-458): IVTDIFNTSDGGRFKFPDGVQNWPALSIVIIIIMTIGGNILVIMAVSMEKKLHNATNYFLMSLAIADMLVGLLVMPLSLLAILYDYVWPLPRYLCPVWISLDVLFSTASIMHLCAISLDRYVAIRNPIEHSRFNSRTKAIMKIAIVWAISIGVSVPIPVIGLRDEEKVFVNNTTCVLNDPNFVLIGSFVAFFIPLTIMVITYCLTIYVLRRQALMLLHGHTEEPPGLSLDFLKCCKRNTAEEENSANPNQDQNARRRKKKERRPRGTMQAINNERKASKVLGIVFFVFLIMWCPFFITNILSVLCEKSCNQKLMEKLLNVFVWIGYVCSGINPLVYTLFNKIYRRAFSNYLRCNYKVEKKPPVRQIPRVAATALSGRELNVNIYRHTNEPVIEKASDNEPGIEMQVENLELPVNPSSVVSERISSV

[4] = target: H1 histaminergic receptors (Homo sapiens, UniProt P35367); conditions: cited from earlier work
Sequence of H1 histaminergic receptors (P35367 whole entry): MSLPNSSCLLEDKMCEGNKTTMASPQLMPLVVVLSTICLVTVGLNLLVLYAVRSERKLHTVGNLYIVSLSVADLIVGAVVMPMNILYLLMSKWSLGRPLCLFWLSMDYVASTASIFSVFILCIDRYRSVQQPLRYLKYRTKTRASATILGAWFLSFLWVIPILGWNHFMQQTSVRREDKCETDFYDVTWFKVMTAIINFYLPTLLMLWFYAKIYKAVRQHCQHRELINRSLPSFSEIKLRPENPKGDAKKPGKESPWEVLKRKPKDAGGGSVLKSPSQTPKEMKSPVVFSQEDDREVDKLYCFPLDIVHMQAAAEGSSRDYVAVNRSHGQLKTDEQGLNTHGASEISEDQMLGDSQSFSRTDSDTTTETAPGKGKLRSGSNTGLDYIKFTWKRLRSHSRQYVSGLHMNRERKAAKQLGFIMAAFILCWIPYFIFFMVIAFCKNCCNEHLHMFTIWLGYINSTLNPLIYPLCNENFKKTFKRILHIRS

[5] = free base form; in water and in many organic solvents; cited from earlier work
[6] = solubility, general statements; assay type: physicochemical; conditions: general statement, solvent not given
Description: Solubility of free base in various solvents is evaluated, and based on the results of the solubility range, suitable solvents are selected for the co-crystal screen. Co-crystal formation is based on hydrogen bonding and stacking of the molecules, meaning the co-former selection is based on active groups. Grinding is a method to form co-crystals, however the free base itself is an oil/sticky solid and therefore not suitable for this method. The free base and counter ion are added to a solution in a certain ratio to give the chance to form a co-crystal, similar to salt formation. We found the best method is to add a saturated solution of the co-former to that of the free base to find an optimal ratio for co-crystal formation.

muscarinic receptors = conditions: cited from earlier work

Question: With `CN1CCN2c3c(cccc31)C1CN(CCCC(=O)c3ccc(F)cc3)CCC12.Cl` (stereo not shown) [hydrochloride salt form of ITI-007] as the molecule, how does the stability [1] read?
Answer: poor stability

Question: And the hygroscopicity [2]?
Answer: hygroscopic

Question: With `CN1CCN2c3c(cccc31)C1CN(CCCC(=O)c3ccc(F)cc3)CCC12.NC(=O)c1ccncc1` (stereo not shown) as the molecule, how does the “Hygroscopicity (%)” value [3] read?
Answer: 0.2%

Question: What about the “hygroscopicity (in words)” value [3] of the same molecule?
Answer: not hygroscopic

Question: And the mass uptake ([3]; at 95 RH %)?
Answer: 0.2%

Question: For `CN1CCN2c3c(cccc31)[C@@H]1CN(CCCC(=O)c3ccc(F)cc3)CC[C@@H]12` [ITI-007, 1-(4-fluoro-phenyl)-4-((6bR,10aS)-3-methyl-2,3,6b,9,10,10a-hexahydro-1H,7H-pyrido[3′,4′:4,5]pyrrolo[1,2,3-de]quinoxalin-8-yl)-butan-1-one], which binding (5-HT2C receptors) is on record?
Answer: negligible binding

Question: What about the binding [4] of the same molecule?
Answer: negligible binding

Question: What about the solubility [5] of the same molecule?
Answer: poor solubility

Question: What about the solubility [6] of the same molecule?
Answer: poorly soluble

Question: And the binding (muscarinic receptors)?
Answer: negligible binding
